These results are taken from patent publication US20230009323A1, “COMPOUNDS AND METHODS FOR THE TREATMENT OF CRYPTOSPORIDIOSIS” (The Broad Institute, Inc., priority 2019, published 2023).

Read-outs that look alike come from different tables or passages of the source. Where only a bound is given, the exact number is not on record here.

The test system of data set [1] is C. parvum Iowa isolate (Bunch Grass Farm). As to the kind of experiment: C. parvum Iowa isolate (Bunch Grass Farm) growth in HCT-8 cells, high-content microscopy. Format: cell-based. As to conditions: Cryptosporidium parvum. Here is the method:
A high-content microscopy assay was used to measure activity of compounds against C. parvum grown in the human adenocarcinoma cell line HCT-8 (ATCC) as disclosed in Bessoff, K., et al., Antimicrobial agents and chemotherapy 57, 1804-1814, doi:10.1128/AAC.02460-12 (2013), hereby incorporated by reference in its entirety. HCT-8 cells were cultured in 384-well clear-bottomed plates in 50 μL per well of RPMI 1640 medium ([…]), 120 U·mL^−1 penicillin, and 120 μg·mL^−1 streptomycin (ATCC) at 37° C. under 5% CO2. For compound screening and follow-up SAR studies, confluent cell monolayers were infected with C. parvum Iowa isolate oocysts [Bunch Grass Farm (Deary, Id.); ˜5,500 oocysts per well] after inducing excystation by treatment for 10 min at 37° C. with 10 mM HCl and then 10 min at 16° C. in 2 mM sodium taurocholate. Compounds were added at the indicated concentrations 3 h after monolayer infection. After incubation (37° C., 5% CO2) for 48 h, the cells were washed three times with PBS containing 111 mM D-Galactose and fixed by adding an equal volume of 8% formaldehyde in PBS. Cell monolayers were then prepared for microscopy by permeabilizing with 0.1% Triton X-100, washing three times with PBS with 0.1% Tween 20, blocking with 4% bovine serum albumin (BSA) in PBS for 2 h at 37° C. or 4° C. overnight, and staining parasitophorous vacuoles with 1.33 μg·mL^−1 of fluorescein-labeled Vicia villosa lectin (Vector Laboratories) diluted in 1% BSA in PBS with 0.1% Tween 20 for 1 h at 37° C. DNA was then stained by adding Hoechst 33258 (AnaSpec) at a final concentration of 0.09 mM diluted in water, followed by washing five times with PBS containing 0.1% Tween 20. Images were acquired using a Nikon Eclipse TE2000 epifluorescence microscope with an automated stage that was programmed using NIS-Elements Advanced Research software (Nikon) to focus on the center of each well and take a 3×3 composite image using an EXi Blue fluorescence microscopy camera (QImaging) with a 20× objective (numerical aperture 0.45). Nucleus and parasite images were exported separately as tif files and analyzed using NIH ImageJ and previously reported macros, and data analysis and graphing were done using GraphPad Prism software, version 6.01. […]

For data set [2], the system named is C. parvum (Iowa) Sterling. As to the kind of experiment: C. parvum (Iowa) Sterling growth in HCT-8 cells. Format: cell-based. The note with it: Cryptosporidium parvum. Here is the method:
(§1) Studies using farm C. parvum isolates and the C. hominis TU502 isolate were performed by Calibr at Scripps Research (La Jolla, Calif.) in 1,536-well plates using a slightly modified immunofluorescence assay as described in Love, M. S. et al. PLoS neglected tropical diseases 11, e0005373, doi:10.1371/journal.pntd.0005373 (2017), hereby incorporated by reference in its entirety. HCT-8 cell culture medium was replaced with RPMI 1640 medium supplemented with 2% heat-inactivated horse serum, 100 U·mL^−1 penicillin, and […] 24 h prior to infection with the indicated isolate. The C. parvum Iowa isolate was included as a reference in all experiments. Imaging was performed using a Cellnsight CX5 High Content screening platform (Thermo Scientific) with a 10× objective and acquisition of one microscopic field per well. Images were processed using HCS Studio Scan software, and the selected-object count (HCT-8 cells) and spot count (parasitophorous vacuoles) were analyzed in Genedata Screener (version 13.0; Standard). Dose-response curves and EC50 values were calculated using the Smart Fit function of Genedata Analyzer.

For a further data set, the system named is C. hominis (TU 502). As to the kind of experiment: C. hominis TU502 growth in HCT-8 cells. Format: cell-based. As to conditions: Cryptosporidium hominis. Here is the method: as §1
The test system of data set [3] is C. parvum. As to the kind of experiment: NOD SCID gamma mouse model of established cryptosporidiosis, fecal oocyst shedding by qPCR. Format: in vivo, NOD SCID gamma mice. The note with it: oral, 50 mg/kg every 24 h for 4 days. The source says:
FIG. 4A is a schematic of NOD SCID gamma (NSG) mouse model of established intestinal cryptosporidiosis. Intestinal C. parvum infection was established by oral gavage of ˜10^5 oocysts either 7 days (FIGS. 4B and C) or 14 days (FIG. 4D) prior to oral treatment with bicyclic azetidines, vehicle, or paromomycin (positive control). All data are the mean and SEM (n=4 mice per experimental group) of parasite shedding per mg of feces measured by qPCR with results for individual mice shown as superimposed data points. Data points for which no parasite DNA was detected are shown at the qPCR assay limit of detection (0.1 oocysts per mg feces).
NOD scid gamma mice (NOD.Cg-Prkdcscid Il2rgtmlWjl/Szj; Jackson Laboratory, Bar Harbor, Me.) (NSG) were used to model established Cryptosporidium infection. All NSG mouse studies were performed in compliance with animal care guidelines and with approval by the University of Vermont Institutional Animal Care and Use Committee. Mice were acquired at three to four weeks of age, and acclimatized for one week prior to infection by oral gavage of ˜10^5 C. parvum Iowa isolate (Bunch Grass Farms) oocysts. They were then treated at the specified times and dosages with each compound dissolved in 0.5% hydroxypropylmethyl cellulose, 0.5% Tween 80 (v/v) plus 5% DMSO.
This cryptosporidiosis infection model used 3-4 week old, freshly weaned, NOD SCID gamma mice orally infected with C. parvum oocysts (˜1×10^5). The infection was monitored by qPCR of feces with primers specific for C. parvum and data are shown as number of oocysts milligram^−1 of feces. Six days following infection and upon confirmation of parasite shedding by qPCR, the three compounds, negative and positive control were orally administered at 50 mg·kg^−1 (body weight) every 24 h for 4 days. (FIGS. 4A-D). […] We then performed a dose-ranging study with Compound 11 using the same immunocompromised mouse model and dosing regimens of 5, 20 and 40 mg·kg^−1 every 24 h for 4 days or 10 mg·kg^−1 every 24 h for 7 days. Mice were monitored for an additional 14 days for relapse of infection.

Another data set is described as follows: HEK293T cytotoxicity. The note with it: human, HEK293T cells. Format: cell-based.
A short description of a further data set: HepG2 cytotoxicity. Format: cell-based. As to conditions: human, HepG2 cells.
The subject of data set [4] is C. parvum (Field Isolate) WSU. As to the kind of experiment: C. parvum field isolate (WSU) growth in HCT-8 cells. Format: cell-based. The note with it: Cryptosporidium parvum. Here is the method: as §1
Data set [5] relates to C. parvum. The note with it: general statement or literature report; cited from earlier work.
The subject of another data set is P. falciparum. As to the kind of experiment: P. falciparum blood-stage growth inhibition. Format: cell-based. As to conditions: Plasmodium falciparum. Here is the method: Pf EC50's were obtained using the procedure disclosed in Bessoff, K. et al. Antimicrobial agents and chemotherapy 58, 2731-2739, doi:10.1128/AAC.02641-13 (2014), hereby incorporated by reference in its entirety. Reduction in C. parvum oocysts/mg feces was determined in the C. parvum immunocompromised mouse model as described in the Examples.

Data set [6] relates to C. parvum WT transgenic PheRS (wtL482). The experiment in a line: In vitro drug susceptibility in HCT-8 cells, luminescence, wild type transgenic. Format: cell-based. The note with it: Cryptosporidium parvum, HCT-8, 48 h, read-out: EC50, wild type transgenic. Here is the method: (§2) The in vitro drug susceptibility assay using transgenic parasites expressing Nluc was performed as described in Vinyak et al. Briefly, host intestinal epithelial adenocarcinoma (HCT-8) cells grown in 96-well plates were infected with purified transgenic Nluc-expressing oocysts (1,000 oocysts per well) and incubated with different concentrations of Compound 11 for 48 hours. Culture supernatant was discarded from the wells after 48 hours, and 200 μl of NanoGlo lysis buffer containing 1:50 of NanoGlo substrate (Promega) was added to the wells. Lysates were transferred to white 96-well plates and luminescence was measured on a Glomax luminescence reader (Promega). EC50 values were calculated in GraphPad Prism software v7.
(§3) Oocysts from the mutant (mut482V) and wild type (wtL482) transgenic lines were purified as well as the parent strain (Bunchgrass) used to generate the transgenics. Sporozoites were excised from these oocysts and used to infect 96 well format HCT-8 cultures to perform in vitro drug susceptibility assays. Cultures were incubated for 48 hours in the presence of varying concentrations of Compound 11 and parasite growth was measured by establishing whole well luciferase activity to calculate EC50 values for each strain.

Data set [7] relates to C. parvum mutant transgenic PheRS (mut482V). The experiment in a line: microbe, parasite or virus in culture. Format: cell-based, Cryptosporidium parvum. Here is the method:
as §2, §3

Setting [8] is: read-out: C. parvum (Iowa) (1% FBS) BGF EC50.
The mark [9] stands for this setting: read-out: C. parvum (Iowa) (10% FBS) BGF EC50.
The mark [10] stands for this setting: serum not given, read-out: C. parvum EC50.

For the compound `COc1ccc(NC(=O)N2CCCCN3[C@H](COCCC(=O)O)[C@H](c4ccc(C#Cc5ccccc5)cc4)[C@@H]3C2)cc1` [Compound 10, 3-(((8R,9R,10S)-6-((4-methoxyphenyl)carbamoyl)-9-(4-(phenylethynyl)phenyl)-1,6-diazabicyclo[6.2.0]decan-10-yl)methoxy)propanoic acid], the concentration for a half-maximal effect (EC50) in data set [1] (setting [8]) is 4 nM; in [1] (setting [9]), 15 nM; in data set [1] (setting [10]), under 73 nM; in data set [2], 2 nM; in the data set on C. hominis (TU 502) it was 5 nM; in data set [4], 9 nM. Besides, in the data set on C. parvum [3], the “reduction in oocyst shedding (oocysts per mg feces)” value (from here on “reduction … (oocysts per mg feces)”) is given as “significant reduction in oocyst shedding”. Further, the cytotoxic concentration (CC50) in the data set “HEK293T cytotoxicity” and in the data set “HepG2 cytotoxicity” was over 40000 nM each time.
On to `NC[C@@H]1O[C@H](O[C@H]2[C@@H](O)[C@H](O[C@@H]3[C@@H](O)[C@H](N)C[C@H](N)[C@H]3O[C@H]3O[C@H](CO)[C@@H](O)[C@H](O)[C@H]3N)O[C@@H]2CO)[C@H](N)[C@@H](O)[C@@H]1O` [paromomycin], for which the “outcome of treatment in C. parvum infected NSG mice” value (“outcome of treatment” for short) in the data set on C. parvum [5] is listed as “quickly relapse”.
In the case of `COc1ccc(NC(=O)N2CCCCN3[C@H](CN(C)S(C)(=O)=O)[C@H](c4ccc(C#Cc5ccccc5)cc4)[C@@H]3C2)cc1` [Compound 17, (8R,9R,10S)-N-(4-methoxyphenyl)-10-((N-methylmethylsulfonamido)methyl)-9-(4-(phenylethynyl)phenyl)-1,6-diazabicyclo[6.2.0]decane-6-carboxamide], the 50% effective concentration (EC50) turned out to be 6 nM in data set [1] (setting [8]); 7 nM in data set [1] (setting [9]); 5 nM in [2]; 4 nM in the data set on C. hominis (TU 502); 6 nM in data set [4]. In the data set with C. parvum [3], the “reduction … (oocysts per mg feces)” value was “greatest reduction in oocysts”. In addition, the CC50 in the data set “HEK293T cytotoxicity” and in the data set “HepG2 cytotoxicity” was over 40000 nM throughout.
As for `CC(C)/N=c1\cc2n(-c3ccc(Cl)cc3)c3ccccc3nc-2cc1Nc1ccc(Cl)cc1` [clofazimine], the “outcome of treatment” value with C. parvum [5] is recorded as “show no improvement at all”.
Regarding `O=C(Nc1ccc(Cl)cc1)N1CCN(c2ccc3nncn3n2)CC1` [MMV665917], the “outcome of treatment” value in the data set on C. parvum [5] was “curative”.
For `COC[C@@]12CN(C(=O)Nc3ccc(OC)cc3)CCCCN1[C@H](CO)[C@@H]2c1ccc(C#Cc2ccccc2)cc1` [Compound 2, (8R,9S,10S)-10-(hydroxymethyl)-8-(methoxymethyl)-N-(4-methoxyphenyl)-9-(4-(phenylethynyl)phenyl)-1,6-diazabicyclo[6.2.0]decane-6-carboxamide], the EC50 in the data set with P. falciparum was 627 nM; in data set [1] (setting [10]), 580 nM.
Turning to `COc1ccc(NC(=O)N2C[C@@H](O)[C@@H](O)CN3[C@H](CS(C)(=O)=O)[C@H](c4ccc(C#Cc5ccccc5)cc4)[C@@H]3C2)cc1` [Compound 18, (3S,4R,8R,9R,10S)-3,4-dihydroxy-N-(4-methoxyphenyl)-10-((methylsulfonyl)methyl)-9-(4-(phenylethynyl)phenyl)-1,6-diazabicyclo[6.2.0]decane-6-carboxamide], the concentration giving a half-maximal response (EC50) was under 0.4 nM in data set [1] (setting [8]), under 0.4 nM in [2], 2 nM with C. hominis (TU 502) and under 0.4 nM in data set [4]. Also, the CC50 in the data set “HEK293T cytotoxicity” was 6000 nM; in the data set “HepG2 cytotoxicity”, 8000 nM.
In the case of `COc1ccc(NC(=O)N2CCCCN3C[C@H](c4ccc(C#Cc5ccccc5)cc4)[C@@H]3C2)cc1` [Compound 19, (8R,9S)-N-(4-methoxyphenyl)-9-(4-(phenylethynyl)phenyl)-1,6-diazabicyclo[6.2.0]decane-6-carboxamide], the EC50 in data set [1] (setting [8]) was determined as 36 nM; in data set [1] (setting [9]), 62 nM; in [2], 31 nM; in the data set on C. hominis (TU 502), 55 nM; in data set [6], 40.8 nM; in data set [7] (Cryptosporidium parvum, HCT-8, 48 h, read-out: EC50, mutant transgenic) it was 372 nM. In addition, the concentration giving a half-maximal response (EC50) in data set [4] turned out to be 96 nM. For the same compound, the figures for the 50% cytotoxic concentration (CC50) in “HEK293T cytotoxicity” and in “HepG2 cytotoxicity” were 25000 nM and 10000 nM, respectively. Besides, the “fold shift in EC50, mutant transgenic vs wild type transgenic” value in [7] came out at 9 fold.
Turning to `COc1ccc(NC(=O)N2CCCCN3[C@H](CO)[C@H](c4ccc(C#Cc5ccccc5)cc4)[C@@H]3C2)cc1` [Compound 9, (8R,9R,10S)-10-(hydroxymethyl)-N-(4-methoxyphenyl)-9-(4-(phenylethynyl)phenyl)-1,6-diazabicyclo[6.2.0]decane-6-carboxamide], in data set [1] (setting [10]), the concentration for a half-maximal effect (EC50) is under 73 nM. For the same compound, in the data set with C. parvum [3], the “reduction … (oocysts per mg feces)” value is listed as “significant reduction in oocyst shedding”.
